US9828339B2, “Biphenyl derivatives and methods for preparing same” (DONG-A ST CO., LTD, priority 2013, dated 2017)

Columns and labels:
[1] = target: T1, human muscarinic M3 receptor (Homo sapiens (Human), UniProt P20309); experiment: Binding assay on human muscarinic M3 receptor ([3H]-methyl scopolamine displacement); conditions: membranes overexpressing human M3 receptor, Ki from IC50 by Cheng-Prusoff, read-out: Binding Affinity to M3 Receptor, Ki
Procedure, shortened: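 Displacement of [3H]-methyl scopolamine from membranes overexpressing human M3, in Tris-HCl, 25 °C, 120 min; filter-bound radioactivity counted. Nonspecific binding with 5 μM atropine; Ki from IC50 via Cheng-Prusoff.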

[2] = test system: rhythmic bladder contractions; experiment: Rhythmic bladder contractions in rats (in vivo); parameters: species or system rat; conditions: 0.3 mpk, intravenous, female Sprague-Dawley rats; amplitude reduction of bladder contractions
Excerpt: [Experimental Example 3] Experiment on Rhythmic Bladder Contractions in Rats (In Vivo)
Female Sprague-Dawley rat was halothane-anesthetized, and a polyethylene catheter was inserted through urethra lay down straight and fixed. Urine in bladder was excreted through the catheter by gently massaging abdomen of the rat, and then removed. A three-way stopcock was connected to the catheter and a pressure transducer was connected to one side of the three-way stopcock to measure pressure, and a syringe was installed at the other side to inject 37° C. of saline solution. The saline solution was slowly injected until regular bladder contractions occurred repeatedly. When regular bladder contractions occurred stably, test compounds were administered intravenously through the tail vein. Inhibitory effect of the test compounds was evaluated by measuring degree of amplitude reduction of bladder contractions.

[3] = target: T1, human muscarinic M3 receptor; experiment: Antagonism assay on human muscarinic M3 receptor (carbachol-induced intracellular calcium, FLIPR Calcium 5, transfected Cos-7 cells); format: cell-based; conditions: functional inhibitory constant; carbachol-induced intracellular calcium in Cos-7 cells transfected with human M3 receptor
Experimental: [Experimental Example 2] Antagonism Assay on Human Muscarinic M3 Receptor
The antagonism assay for various compounds of the present invention was conducted on antagonism to human M3 receptor in Cos-7 cells that was transfected with plasmid coding human muscarinic M3 receptor. Test compounds in various concentrations were pre-treated to the cells for 3 minutes, and then the changes of intracellular calcium were measured after treating the same with carbachol (i.e. muscarinic receptor agonist). The FLIPR® Calcium 5 assay (Molecular Devices) and Flex3 device (Molecular Devices) were used to measure concentration of calcium. Amounts of calcium before and after carbachol treatment were set as 0% and 100% respectively. Inhibition rates (%) by the compounds for increase in intracellular calcium by carbachol were calculated. The antagonistic potency of the test compounds on human muscarinic M3 receptor was calculated as the functional inhibitory constant (Ki), which can be calculated from concentration (IC50) of compound inhibiting 50% of activity of carbachol according to Cheng and Prusoff equation.

T1 sequence (P20309 whole entry): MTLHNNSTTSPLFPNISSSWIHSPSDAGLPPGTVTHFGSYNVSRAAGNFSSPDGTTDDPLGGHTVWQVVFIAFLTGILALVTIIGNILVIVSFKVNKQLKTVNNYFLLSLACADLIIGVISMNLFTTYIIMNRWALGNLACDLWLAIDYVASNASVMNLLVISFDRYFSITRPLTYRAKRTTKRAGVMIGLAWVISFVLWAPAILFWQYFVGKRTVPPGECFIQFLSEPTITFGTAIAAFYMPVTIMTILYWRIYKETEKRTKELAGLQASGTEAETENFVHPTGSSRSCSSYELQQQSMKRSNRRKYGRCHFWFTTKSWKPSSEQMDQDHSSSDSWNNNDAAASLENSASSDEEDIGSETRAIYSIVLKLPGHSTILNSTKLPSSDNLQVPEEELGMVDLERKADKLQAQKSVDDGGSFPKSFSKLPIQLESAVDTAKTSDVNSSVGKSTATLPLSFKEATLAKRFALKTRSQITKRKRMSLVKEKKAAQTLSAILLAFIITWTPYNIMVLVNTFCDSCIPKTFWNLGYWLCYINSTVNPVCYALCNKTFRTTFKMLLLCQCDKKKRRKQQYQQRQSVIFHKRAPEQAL

Row | Compound | Ki [1] [nM] | Ki [3] [nM] | Inhibition of Rhythmic bladder contraction in rats [2] [%]
1 | Cc1cccc(-c2cc(F)ccc2NC(=O)OC[C@@H]2CCCN2C)c1 [Example 201, (S)-(1-methylpyrrolidin-2-yl)methyl (5-fluoro-3′-methyl-[1,1′-biphenyl]-2-yl)carbamate] | 2.7 | – | 9.1 ± 3.0
2 | CN1CC[C@@H](COC(=O)Nc2ccccc2-c2cc(Cl)cc(Cl)c2)C1 [Example 131, (R)-(1-methylpyrrolidin-3-yl)methyl(3′,5′-dichloro-[1,1′-biphenyl]-2-yl)carbamate] | 12 | 1.86 | 17.8 ± 2.5
3 | CC(C)N1CCC[C@H]1COC(=O)Nc1ccccc1-c1ccccc1 [Example 112, (S)-(1-isopropylpyrrolidin-2-yl)-methyl [1,1′-biphenyl]-2-ylcarbamate] | 3.77 | – | 34.8 ± 2.9
4 | Cc1cccc(-c2ccccc2NC(=O)OC[C@H]2CCN(C)C2)c1 [Example 101, (S)-(1-methylpyrrolidin-3-yl)-methyl(3′-methyl-[1,1′-biphenyl]-2-yl)carbamate] | 3.79 | – | 20.1 ± 1.7
5 | CN1CCC[C@H]1COC(=O)Nc1ccc(F)cc1-c1cc(F)cc(F)c1 [Example 172, (S)-(1-methylpyrrolidin-2-yl)methyl(3′,5,5′-trifluoro-[1,1′-biphenyl]-2-yl)carbamate] | 6.15 | – | 12.4 ± 2.7
6 | CN1CCC[C@H]1COC(=O)Nc1ccccc1-c1cccc(Cl)c1 [Example 165, (S)-(1-methylpyrrolidin-2-yl)methyl(3′-chloro-[1,1′-biphenyl]-2-yl)carbamate] | 0.63 | – | 34.5 ± 2.5
7 | CN1CCCC1CCOC(=O)Nc1ccccc1-c1ccc(F)cc1 (stereo not shown) [Example 1, 2-(1-methylpyrrolidin-2-yl)ethyl(4′-fluoro-[1,1′-biphenyl]-2-yl)carbamate] | 4.42 | – | 26.1 ± 5.1
8 | CN1CC[C@H](COC(=O)Nc2ccccc2-c2ccc(F)c(Cl)c2)C1 [Example 121, (S)-(1-methylpyrrolidin-3-yl)methyl(3′-chloro-4′-fluoro-[1,1′-biphenyl]-2-yl)carbamate] | 1.75 | – | 31.4 ± 6.1
9 | CN1CCC[C@H]1COC(=O)Nc1ccccc1-c1ccc(F)cc1 [Example 198, (S)-(1-methylpyrrolidin-2-yl)methyl(4′-fluoro-[1,1′-biphenyl]-2-yl)carbamate] | 1.87 | – | 26.3 ± 2.4
10 | CN1CCC[C@H]1COC(=O)Nc1ccc(F)cc1-c1ccc(F)cc1 [Example 203, (S)-(1-methylpyrrolidin-2-yl)methyl (4′,5-difluoro-[1,1′-biphenyl]-2-yl)carbamate] | 2.36 | – | 19.4 ± 4.0
11 | CN1CCC[C@H]1COC(=O)Nc1ccccc1-c1ccccc1 [Example 197, (S)-(1-methylpyrrolidin-2-yl)-methyl [1,1′-biphenyl]-2-ylcarbamate] | 0.78 | – | 32.8 ± 9.7
12 | CN1CCC[C@H]1COC(=O)Nc1cc(F)ccc1-c1cccc(F)c1 [Example 205, (S)-(1-methylpyrrolidin-2-yl)methyl(3′,4-difluoro-[1,1′-biphenyl]-2-yl)carbamate] | 7.95 | – | 11.9 ± 3.7
13 | CN1CCCC1CCOC(=O)Nc1ccccc1-c1ccccc1 (stereo not shown) [Example 6, 2-(1-methylpyrrolidin-2-yl)ethyl[1,1′-biphenyl]-2-ylcarbamate] | 2.47 | – | 28.5 ± 4.6
14 | CN1CCC[C@H]1COC(=O)Nc1ccc(F)cc1-c1cccc(F)c1 [Example 202, (S)-(1-methylpyrrolidin-2-yl)methyl (3′,5-difluoro-[1,1′-biphenyl]-2-yl)carbamate] | 2.18 | – | 17.3 ± 1.3
15 | CN1CCCC1COC(=O)Nc1ccccc1-c1ccc(F)cc1 (stereo in doubt) [Example 99, (S)-(1-methylpyrrolidin-2-yl)methyl (4′-fluoro-[1,1′-biphenyl]-2-yl)carbamate] | 8.1 | – | 16.3 ± 1.0
16 | Cc1ccc(NC(=O)OCCC2CCCN2C)c(-c2ccccc2)c1 (stereo not shown) [Example 26, 2-(1-methylpyrrolidin-2-yl)ethyl(5-methyl-[1,1′-biphenyl]-2-yl)carbamate] | 18.5 | – | 11.0 ± 2.5
17 | Cc1cccc(-c2cc(F)ccc2NC(=O)OC[C@@H]2CCN(C)C2)c1 [Example 192, (R)-(1-methylpyrrolidin-3-yl)methyl(5-fluoro-3′-methyl-[1,1′-biphenyl]-2-yl)carbamate] | 4.6 | – | 18.6 ± 3.6

Second part, led by results:

Row | Ki [1] [nM] | Ki [3] [nM] | Compound | Inhibition of Rhythmic bladder contraction in rats [2] [%]
18 | 9.15 | – | CN1CCC[C@H]1COC(=O)Nc1ccc(F)cc1-c1cccc(C(F)(F)F)c1 [Example 180, (S)-(1-methylpyrrolidin-2-yl)methyl(5-fluoro-3′-(trifluoromethyl)-[1,1′-biphenyl]-2-yl)carbamate] | 6.3 ± 1.3
19 | 1 | – | CN1CCCC1CCOC(=O)Nc1ccc(F)cc1-c1cccc(Cl)c1 (stereo not shown) [Example 17, 2-(1-methylpyrrolidin-2-yl)ethyl(3′-chloro-5-fluoro-[1,1′-biphenyl]-2-yl)carbamate] | 27.9 ± 6.1
20 | 1.48 | – | CN1CCCC1CCOC(=O)Nc1ccc(F)cc1-c1ccc(Cl)c(Cl)c1 (stereo not shown) [Example 43, 2-(1-methylpyrrolidin-2-yl)ethyl(3′,4′-dichloro-5-fluoro-[1,1′-biphenyl]-2-yl)carbamate] | 8.9 ± 2.3
21 | 9.04 | 1.33 | CN1CCC[C@H]1COC(=O)Nc1ccccc1-c1ccc(Cl)c(Cl)c1 [Example 166, (S)-(1-methylpyrrolidin-2-yl)methyl(3′,4′-dichloro-[1,1′-biphenyl]-2-yl)carbamate] | 10.2 ± 1.7
22 | 3.95 | – | CN1CC[C@H](COC(=O)Nc2ccc(F)cc2-c2cccc(F)c2)C1 [Example 108, (S)-(1-methylpyrrolidin-3-yl)-methyl(3′,5-difluoro-[1,1′-biphenyl]-2-yl)carbamate] | 18.1 ± 1.4
23 | 11.6 | – | CN1CCCC1CCOC(=O)Nc1ccccc1-c1cc(F)c(F)c(F)c1 (stereo not shown) [Example 3, 2-(1-methylpyrrolidin-2-yl)ethyl(3′,4′,5′-trifluoro-[1,1′-biphenyl]-2-yl)carbamate] | 15.9 ± 0.9
24 | 5.33 | – | CN1CCC[C@@H]1COC(=O)Nc1ccccc1-c1ccccc1 [Example 109, (R)-(1-methylpyrrolidin-2-yl)-methyl [1,1′-biphenyl]-2-ylcarbamate] | 18.1 ± 1.7
25 | 4.12 | – | CN1CC[C@H](COC(=O)Nc2ccc(F)cc2-c2ccccc2)C1 [Example 93, (S)-(1-methylpyrrolidin-3-yl)methyl (5-fluoro-[1,1′-biphenyl]-2-yl)carbamate] | 27.3 ± 1.9
26 | 3.53 | – | CN1CCC[C@H]1COC(=O)Nc1cc(F)ccc1-c1ccccc1 [Example 204, (S)-(1-methylpyrrolidin-2-yl)methyl (4-fluoro-[1,1′-biphenyl]-2-yl)carbamate] | 23.3 ± 6.6
27 | 4.29 | – | CN1CCC[C@H]1COC(=O)Nc1ccccc1-c1cccc(F)c1 [Example 160, (S)-(1-methylpyrrolidin-2-yl)methyl(3′-fluoro-[1,1′-biphenyl]-2-yl)carbamate] | 15.5 ± 2.4
28 | 0.8 | – | CCN1CCC[C@H]1COC(=O)Nc1ccccc1-c1ccccc1 [Example 106, (S)-(1-ethylpyrrolidin-2-yl)methyl [1,1′-biphenyl]-2-ylcarbamate] | 32.7 ± 5.2
29 | 4.62 | – | O=C(Nc1ccccc1-c1ccccc1)OC[C@@H]1CCNC1 [Example 78, (R)-pyrrolidin-3-ylmethyl [1,1′-biphenyl]-2-ylcarbamate] | 17.9 ± 2.1
30 | 6.32 | – | CN1CCC[C@H]1COC(=O)Nc1ccc(F)cc1-c1ccc(Cl)c(Cl)c1 [Example 177, (S)-(1-methylpyrrolidin-2-yl)methyl (3′,4′-dichloro-5-fluoro-[1,1′-biphenyl]-2-yl)carbamate] | 11.3 ± 2.2
31 | 9.1 | – | CN1CCCC1CCOC(=O)Nc1ccccc1-c1cc(Cl)cc(Cl)c1 (stereo not shown) [Example 9, 2-(1-methylpyrrolidin-2-yl)ethyl(3′,5′-dichloro-[1,1′-biphenyl]-2-yl)carbamate] | 9.6 ± 1.6
